Test results from patent publication US20260248936A1, “NOVEL LINKER COMPOUND AND LIGAND-DRUG CONJUGATE THEREFOR” (priority 2022, published 2026).
Numbered stars: 1 amine (or outer) side, 2 acyl side, 3 side chain; on linkers, the order of the positions; unused ones are H or OH. Square brackets hold non-standard residues; d marks the D form. Peptide text beside a SMILES is read from it. * marks the point of attachment. ξ: configuration not given here. X2 = C#CCC(OC(=O)*)c1ccc(O[C@@H]2O[C@H](CO)[C@H](O)[C@H](O)[C@H]2O)c2cc(C(=O)O)oc12; X3 = C#CCC(OC(=O)*)c1ccc(O[C@@H]2O[C@H](CO)[C@H](O)[C@H](O)[C@H]2O)c2cc(C(=O)O)sc12; X1 = O=C(O)CCc1cc2c(O[C@@H]3O[C@H](CO)[C@H](O)[C@H](O)[C@H]3O)ccc(COC(=O)*)c2s1; Dil(5ξ) = CCC(C)[C@@H]([C@@H](CC(=O)[*:2])OC)N(C)[*:1]; Dolaproine = CO[C@@H]([C@@H]1CCCN1)[C@@H](C)C(=O)O; NMeV = CN[C@H](C(=O)O)C(C)C; ξF = NC(Cc1ccccc1)C(=O)O

Legend:
[1] = Chemical stability in PBS buffer solution (pH 7.4); assay type: physicochemical; settings: PBS buffer solution pH 7.4, 37° C., HPLC; read-out: Chemical stability t1/2
Procedure: The compounds of the present invention (A-5, A-8, A-9, A-11, A-12, A-14, A-15, A-16, A-19, A-23, A-24, A-35 and A-36) were each dissolved in DMSO to a concentration of 10 mM and then mixed with a PBS buffer solution (pH 7.4) to prepare as a solution having a concentration of 500 μM (5% DMSO). MPS, used as a standard substance, was also prepared as a solution having a concentration of 500 μM in a PBS buffer solution. 420 μL of a PBS buffer solution and 140 μL of each of 500 μM compounds of the present invention and MPS were mixed to prepare a total of 700 μL of reaction solution. The reaction of the mixed solution was initiated in a constant temperature incubator at 37° C. The reaction solution was aliquoted in an amount of 70 μL at 0 minutes before the reaction and at certain times after the reaction, and the remaining compounds of the present invention or MPS or the liberated MMAF were quantitatively analyzed using the HPLC method. […] In addition, the remaining amount of Compound A-19 in a PBS buffer solution (pH 7.4) according to the incubation time is shown in FIG. 4.

Mouse plasma stability = assay type: in vitro ADME; settings: Method 1 (mouse plasma), 37° C., read-out: Plasma stability t1/2
Procedure: Method 1: Mouse Plasma Stability
(§1) The compounds of the present invention (A-5, A-9, A-14, A-19, A-35, A-36) and MPS, used as a standard substance, were each dissolved in DMSO and a PBS buffer solution to a concentration of 30 mM, and then mixed in mouse plasma (Biochemed, 029-APSC-PMG) to a final concentration of 300 μM (final 1.0% DMSO) and 600 μM of the compounds and MPS, respectively. The reaction of the mixed solution in plasma was initiated in a constant temperature incubator at 37° C. Before the reaction and on certain days after the reaction, the above samples were aliquoted in an amount of 100 μL, and 200 μL of acetonitrile (ACN, Sigma, SA-271004-1L) was added to terminate the reaction, mixed, and then vortexed for about 1 minute, and then centrifuged (Beckman, B30150) at 4° C. for 15 minutes at 14,000 rpm to precipitate plasma proteins. Each supernatant obtained by centrifugation was collected and quantitatively analyzed using the HPLC method.
(§2) The results of measuring the plasma half-life of the compounds of the present invention using Methods 1 to 4 above are shown in Table 3.

Human plasma stability = assay type: in vitro ADME; settings: Method 2 (human plasma), 37° C., read-out: Plasma stability t1/2
Procedure: Method 2: Human Plasma Stability
as §1, with “(A-8,” for “(A-5,”, “human” for “mouse”, “752PR—SC-PMG)” for “029-APSC-PMG)”, “ACN” for “acetonitrile (ACN, Sigma, SA-271004-1L)”, “centrifuged” for “centrifuged (Beckman, B30150)”
as §2

[2] = Beagle dog plasma stability; assay type: in vitro ADME; settings: Method 4 (beagle dog plasma), 37° C., read-out: Plasma stability t1/2
Procedure: Method 4: Beagle Dog Plasma Stability
as §1, with “(A-19,” for “(A-5, A-9, A-14, A-19, A-35,”, “beagle dog” for “mouse”, “014-APSC-PMG)” for “029-APSC-PMG)”, “ACN” for “acetonitrile (ACN, Sigma, SA-271004-1L)”, “centrifuged” for “centrifuged (Beckman, B30150)”
as §2

Rat plasma stability = assay type: in vitro ADME; settings: Method 3 (rat plasma), 37° C., read-out: Plasma stability t1/2
Procedure: Method 3: Rat Plasma Stability
as §1, with “(A-19,” for “(A-5, A-9, A-14, A-19, A-35,”, “rat” for “mouse”, “031-APSC-PMG)” for “029-APSC-PMG)”, “ACN” for “acetonitrile (ACN, Sigma, SA-271004-1L)”, “centrifuged” for “centrifuged (Beckman, B30150)”
as §2

Structure (SMILES): CCC(C)[C@@H]([C@@H](CC(=O)N1CCC[C@H]1[C@H](OC)[C@@H](C)C(=O)NC(Cc1ccccc1)C(=O)O)OC)N(C)C(=O)[C@@H](NC(=O)[C@H](C(C)C)N(C)C(=O)OCc1ccc(O[C@@H]2O[C@H](CO)[C@H](O)[C@H](O)[C@H]2O)c2cc(CCC(=O)O)sc12)C(C)C (some centres unmarked) [Compound A-5] (X1-[NMeV]V[Dil(5ξ)][Dolaproine][ξF]-OH)
- half-life at 100 µM [1]: > 168 h
- half-life at 300 µM (Mouse plasma stability): > 168 h

Structure (SMILES): CCC(C)[C@@H]([C@@H](CC(=O)N1CCC[C@H]1[C@H](OC)[C@@H](C)C(=O)NC(Cc1ccccc1)C(=O)O)OC)N(C)C(=O)[C@@H](NC(=O)[C@H](C(C)C)N(C)C(=O)OCc1ccc(O[C@@H]2O[C@H](CO)[C@H](O)[C@H](O)[C@H]2O)c2cc(Cn3cc(COCCOCCOCCOC)nn3)sc12)C(C)C (some centres unmarked) [Compound A-8]
- half-life at 100 µM [1]: > 168 h
- half-life at 300 µM (Human plasma stability): > 168 h

Structure (SMILES): C#CCC(OC(=O)N(C)[C@H](C(=O)N[C@H](C(=O)N(C)[C@@H](C(C)CC)[C@@H](CC(=O)N1CCC[C@H]1[C@H](OC)[C@@H](C)C(=O)NC(Cc1ccccc1)C(=O)O)OC)C(C)C)C(C)C)c1ccc(O[C@@H]2O[C@H](CO)[C@H](O)[C@H](O)[C@H]2O)c2cc(C(=O)O)sc12 (some centres unmarked) [Compound A-11] (X3-[NMeV]V[Dil(5ξ)][Dolaproine][ξF]-OH)
- half-life at 100 µM [1]: > 168 h

Structure (SMILES): C#CCC(OC(=O)N(C)[C@H](C(=O)N[C@H](C(=O)N(C)[C@@H](C(C)CC)[C@@H](CC(=O)N1CCC[C@H]1[C@H](OC)[C@@H](C)C(=O)NC(Cc1ccccc1)C(=O)O)OC)C(C)C)C(C)C)c1ccc(O[C@@H]2O[C@H](CO)[C@H](O)[C@H](O)[C@H]2O)c2cc(CCC(=O)O)sc12 (some centres unmarked) [Compound A-12]
- half-life at 100 µM [1]: > 168 h

Structure (SMILES): C#CCC(OC(=O)N(C)[C@H](C(=O)N[C@H](C(=O)N(C)[C@@H](C(C)CC)[C@@H](CC(=O)N1CCC[C@H]1[C@H](OC)[C@@H](C)C(=O)NC(Cc1ccccc1)C(=O)O)OC)C(C)C)C(C)C)c1ccc(O[C@@H]2O[C@H](CO)[C@H](O)[C@H](O)[C@H]2O)c2cc(C(=O)O)oc12 (some centres unmarked) [Compound A-15] (X2-[NMeV]V[Dil(5ξ)][Dolaproine][ξF]-OH)
- half-life at 100 µM [1]: > 168 h

Structure (SMILES): C#CCC(OC(=O)N(C)[C@H](C(=O)N[C@H](C(=O)N(C)[C@@H](C(C)CC)[C@@H](CC(=O)N1CCC[C@H]1[C@H](OC)[C@@H](C)C(=O)NC(Cc1ccccc1)C(=O)O)OC)C(C)C)C(C)C)c1ccc(O[C@@H]2O[C@H](CO)[C@H](O)[C@H](O)[C@H]2O)c2cc(CCCC(=O)O)oc12 (some centres unmarked) [Compound A-16]
- half-life at 100 µM [1]: > 168 h

Structure (SMILES): CCC(C)[C@@H]([C@@H](CC(=O)N1CCC[C@H]1[C@H](OC)[C@@H](C)C(=O)NC(Cc1ccccc1)C(=O)O)OC)N(C)C(=O)[C@@H](NC(=O)[C@H](C(C)C)N(C)C(=O)OCc1cc2c(O[C@@H]3O[C@H](CO)[C@H](O)[C@H](O)[C@H]3O)ccc(COC(=O)N(C)[C@H](C(=O)N[C@H](C(=O)N(C)[C@@H](C(C)CC)[C@@H](CC(=O)N3CCC[C@H]3[C@H](OC)[C@@H](C)C(=O)NC(Cc3ccccc3)C(=O)O)OC)C(C)C)C(C)C)c2o1)C(C)C (some centres unmarked) [Compound A-24]
- half-life at 100 µM [1]: > 168 h

Structure (SMILES): C#CCC(OC(=O)N(C)[C@H](C(=O)N[C@H](C(=O)N(C)[C@@H](C(C)CC)[C@@H](CC(=O)N1CCC[C@H]1[C@H](OC)[C@@H](C)C(=O)NC(Cc1ccccc1)C(=O)O)OC)C(C)C)C(C)C)c1ccc(O[C@@H]2O[C@H](CO)[C@H](O)[C@H](O)[C@H]2O)c2cc(COC(=O)N(C)[C@H](C(=O)N[C@H](C(=O)N(C)[C@@H](C(C)CC)[C@@H](CC(=O)N3CCC[C@H]3[C@H](OC)[C@@H](C)C(=O)NC(Cc3ccccc3)C(=O)O)OC)C(C)C)C(C)C)oc12 (some centres unmarked) [Compound A-35]
- half-life at 100 µM [1]: > 168 h
- half-life at 300 µM (Mouse plasma stability): > 168 h
- half-life at 300 µM (Human plasma stability): > 168 h

Structure (SMILES): C#CCC(OC(=O)N(C)[C@H](C(=O)N[C@H](C(=O)N(C)[C@@H](C(C)CC)[C@@H](CC(=O)N1CCC[C@H]1[C@H](OC)[C@@H](C)C(=O)N[C@H](C)[C@@H](O)c1ccccc1)OC)C(C)C)C(C)C)c1ccc(O[C@@H]2O[C@H](C(=O)O)[C@H](O)[C@H](O)[C@H]2O)c2cc(CCC(=O)O)[se]c12 (some centres unmarked) [Compound A-36]
- half-life at 100 µM [1]: > 168 h
- half-life at 300 µM (Mouse plasma stability): > 168 h
- half-life at 300 µM [2]: > 168 h
- half-life at 300 µM (Rat plasma stability): > 168 h
- half-life at 300 µM (Human plasma stability): > 168 h
